{
  "source": "patent US20070111267A1",
  "about": "“Method of determining efficacy of anticancer drug and determination kit therefor” (priority 2003, published 2007)",
  "key": {"[1]": {"system": "K562", "test": "Sensitivity of cell line to the tyrosine kinase inhibitor", "assay_type": "cell-based, human", "from_the_text": "K562: human CML cell line. Expression of Bcr-Abl protein. Sensitive to Bcr-Abl inhibitor.\n(§1) One to two μM STI571 was directly added to a cell culture."}, "[2]": {"system": "MEG", "test": "Sensitivity of cell line to the tyrosine kinase inhibitor", "assay_type": "cell-based, human", "from_the_text": "MEG: human CML cell line. Expression of Bcr-Abl protein. Sensitive to Bcr-Abl inhibitor.\nas §1"}, "[3]": {"system": "MOLM1", "test": "Sensitivity of cell line to the tyrosine kinase inhibitor", "assay_type": "cell-based, human", "from_the_text": "MOLM1: human CML cell line. Expression of Bcr-Abl protein. Sensitive to Bcr-Abl inhibitor.\nas §1"}, "[4]": {"system": "KYO-1", "test": "Sensitivity of cell line to the tyrosine kinase inhibitor", "assay_type": "cell-based, human", "conditions": "KYO-1 cell line", "from_the_text": "KYO-1: human CML cell line. Expression of Bcr-Abl protein. Resistant to Bcr-Abl inhibitor. See Leukemia Research 9: 921-926, (1985).\nas §1"}, "[5]": {"system": "CMK", "test": "Sensitivity of cell line to the tyrosine kinase inhibitor", "assay_type": "cell-based, human", "from_the_text": "CMK: human megakaryocytic leukemia cell line. No expression of Bcr-Abl protein. Resistant to Bcr-Abl inhibitor.\nas §1"}, "[6]": {"system": "HEL", "test": "Sensitivity of cell line to the tyrosine kinase inhibitor", "assay_type": "cell-based, human", "from_the_text": "HEL: human erythrocytic leukemia cell line. No expression of Bcr-Abl protein. Resistant to Bcr-Abl inhibitor.\nas §1"}, "[7]": {"system": "p27 protein", "conditions": "reported in Tomoda K et al. J Biol Chem. 2002; cited from earlier work"}},
  "note": "Where a name gives a salt, the structure may show the parent alone.",
  "data": [
    {"compound": "Cc1ccc(NC(=O)c2ccc(CN3CCN(C)CC3)cc2)cc1Nc1nccc(-c2cccnc2)n1", "note": "[tyrosine kinase inhibitor, imatinib mesylate]", "values": [
      {"measurement": "Sensitivity to the tyrosine kinase inhibitor", "setting": "[1]", "result": "sensitive"},
      {"measurement": "Sensitivity to the tyrosine kinase inhibitor", "setting": "[2]", "result": "sensitive"},
      {"measurement": "Sensitivity to the tyrosine kinase inhibitor", "setting": "[3]", "result": "sensitive"},
      {"measurement": "Sensitivity to the tyrosine kinase inhibitor", "setting": "[4]", "result": "resistant"},
      {"measurement": "Sensitivity to the tyrosine kinase inhibitor", "setting": "[5]", "result": "resistant"},
      {"measurement": "Sensitivity to the tyrosine kinase inhibitor", "setting": "[6]", "result": "resistant"}
    ]},
    {"compound": "CCC(=C/[C@H](C)C/C=C/C(C)=C/[C@@H](C)C(=O)[C@@H](C)[C@H](O)[C@@H](C)C/C(C)=C/C(=O)O)/C=C/[C@@H]1OC(=O)C=C[C@@H]1C", "note": "[leptomycin B]", "values": [
      {"measurement": "degradation of p27 protein by the Jab1 small complex", "setting": "[7]", "result": "inhibited"}
    ]}
  ]
}
